Key:
[1] = tested on: muscarinic cholinergic receptor; assay: pharmacological studies, muscarinic cholinergic receptor activity
migraine pain = assay: Utility tests for migraine analgesic activity (mouse writhing, acetic acid-induced writhing, protein extravasation and related tests); format: in vivo, mice; rats; guinea pigs; rabbits; conditions: summary statement for the utility tests, no values given
5-HT1C receptor = assay: pharmacological studies, 5-HT1C receptor activity

Cc1cc2c(s1)Nc1ccccc1N=C2N1CCN(C)CC1 [olanzapine, 2-methyl-4-(4-methyl-1-piperazinyl)-10H-thieno[2,3-b][1,5]benzodiazepine]
muscarinic cholinergic receptor activity [1]: has muscarinic cholinergic receptor activity
migraine pain analgesic effect (migraine pain): can provide a significant migraine pain analgesic effect
activity at the 5-HT1C receptor (5-HT1C receptor): active

Reference: patent US5929070A (Eli Lilly and Company, priority 1997, dated 1999)
